For 13 molecules, IC50 results are on record in US8013156B2 (Exelixis, Inc., priority 2003, dated 2011).

In the experiment the target is Tie-2 (Homo sapiens, UniProt Q02763). As to the kind of experiment: Tie-2 tyrosine kinase activity assay (luciferase/luciferin ATP consumption with pEY substrate, or 33P-ATP incorporation). It counts as biochemical. The following applies: human enzyme Tie-2. Put shortly: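 Values are IC50 categories (A <50 nM to D ≥10,000 nM), with Ki obtainable by fitting rates to a tight-binding model. Assay formats: 33P-ATP phosphate transfer to adsorbed generic substrate counted by scintillation, or luciferase-detected ATP depletion using pEY.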
Sequence of Tie-2 (Q02763 23-1124): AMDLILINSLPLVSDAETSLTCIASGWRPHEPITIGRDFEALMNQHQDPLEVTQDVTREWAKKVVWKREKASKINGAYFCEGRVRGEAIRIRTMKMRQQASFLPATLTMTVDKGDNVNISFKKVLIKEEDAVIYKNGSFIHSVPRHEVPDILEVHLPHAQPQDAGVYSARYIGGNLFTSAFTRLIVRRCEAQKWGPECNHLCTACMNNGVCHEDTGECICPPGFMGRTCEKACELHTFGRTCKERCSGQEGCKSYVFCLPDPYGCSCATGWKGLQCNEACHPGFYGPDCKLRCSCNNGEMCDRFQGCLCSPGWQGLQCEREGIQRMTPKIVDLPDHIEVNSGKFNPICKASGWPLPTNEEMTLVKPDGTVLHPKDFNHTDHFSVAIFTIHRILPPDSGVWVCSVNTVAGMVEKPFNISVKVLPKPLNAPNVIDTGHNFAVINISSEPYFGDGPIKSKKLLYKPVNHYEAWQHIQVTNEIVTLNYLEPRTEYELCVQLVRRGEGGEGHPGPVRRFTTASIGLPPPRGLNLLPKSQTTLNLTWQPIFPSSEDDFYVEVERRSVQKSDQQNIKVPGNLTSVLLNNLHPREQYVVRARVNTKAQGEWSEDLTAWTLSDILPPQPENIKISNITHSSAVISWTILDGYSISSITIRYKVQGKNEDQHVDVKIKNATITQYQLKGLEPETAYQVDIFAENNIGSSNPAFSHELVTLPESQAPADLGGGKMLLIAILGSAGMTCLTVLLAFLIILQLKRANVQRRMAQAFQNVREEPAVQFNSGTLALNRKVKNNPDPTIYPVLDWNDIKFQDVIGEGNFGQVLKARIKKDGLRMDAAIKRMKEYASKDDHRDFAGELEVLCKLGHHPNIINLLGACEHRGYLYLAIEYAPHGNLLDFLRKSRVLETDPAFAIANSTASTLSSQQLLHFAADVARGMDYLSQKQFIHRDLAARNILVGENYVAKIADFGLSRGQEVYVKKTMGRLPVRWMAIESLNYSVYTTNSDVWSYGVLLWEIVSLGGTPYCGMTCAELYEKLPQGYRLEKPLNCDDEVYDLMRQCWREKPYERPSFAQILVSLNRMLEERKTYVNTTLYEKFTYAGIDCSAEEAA

As a reminder, the IC50 is the concentration needed to halve the response being measured. As for `CCc1ccc(F)c(NC(=O)N2CCN(c3ncccc3OCc3ccnc(N)n3)CC2)c1` [Example 180, 4-(3-{[(2-aminopyrimidin-4-yl)methyl]oxy}pyridin-2-yl)-N-(5-ethyl-2-fluorophenyl)piperazine-1-carboxamide], the IC50 is < 50 nM.

In the case of `CCc1cc(Br)cc(NC(=O)N2CCN(c3ncccc3OCc3ccnc(N)n3)CC2)c1` [Example 181, 4-(3-{[(2-aminopyrimidin-4-yl)methyl]oxy}pyridin-2-yl)-N-(3-bromo-5-ethylphenyl)piperazine-1-carboxamide], the IC50 is < 50 nM. For `CCc1cccc(NC(=O)N2CCN(c3ncccc3OCc3ccnc(NC(=O)OCCN4CCN(C)CC4)c3)CC2)c1` [Example 182, 2-(4-methylpiperazin-1-yl)ethyl [4-({[2-(4-{[(3-ethylphenyl)amino]carbonyl}piperazin-1-yl)pyridin-3-yl]oxy}methyl)pyridin-2-yl]carbamate], the IC50 was < 50 nM. Under `Nc1nccc(COc2cccnc2N2CCN(C(=O)Nc3cccc(Cl)c3)CC2)n1` [Example 183, 4-(3-{[(2-aminopyrimidin-4-yl)methyl]oxy}pyridin-2-yl)-N-(3-chlorophenyl)piperazine-1-carboxamide] stands 50 to 1000 nM. With `Nc1nccc(COc2cccnc2N2CCN(C(=O)Nc3cccc(Br)c3)CC2)n1` [Example 184, 4-(3-{[(2-aminopyrimidin-4-yl)methyl]oxy}pyridin-2-yl)-N-(3-bromophenyl)piperazine-1-carboxamide] the figure was < 50 nM; with `CC(=O)N1CCN(c2ncccc2OCc2ccnc(NC(=O)CN3CCN(C)CC3)c2)CC1` [Example 185, N-[4-({[2-(4-acetylpiperazin-1-yl)pyridin-3-yl]oxy}methyl)pyridin-2-yl]-2-(4-methylpiperazin-1-yl)acetamide], ≥ 10000 nM; with `Nc1nccc(COc2cccnc2N2CCN(C(=O)Nc3cccc(F)c3)CC2)n1` [Example 186, 4-(3-{[(2-aminopyrimidin-4-yl)methyl]oxy}pyridin-2-yl)-N-(3-fluorophenyl)piperazine-1-carboxamide], 50 to 1000 nM. For `Nc1nccc(COc2cccnc2N2CCN(C(=O)Nc3ccc(F)cc3)CC2)n1` [Example 187, 4-(3-{[(2-aminopyrimidin-4-yl)methyl]oxy}pyridin-2-yl)-N-(4-fluorophenyl)piperazine-1-carboxamide], the IC50 lay within 1000 to 10000 nM.

The molecule `Nc1nccc(COc2cccnc2N2CCN(C(=O)Nc3ccccc3F)CC2)n1` [Example 188, 4-(3-{[(2-aminopyrimidin-4-yl)methyl]oxy}pyridin-2-yl)-N-(2-fluorophenyl)piperazine-1-carboxamide] displayed an IC50 of 1000 to 10000 nM. With `CCc1cc(CC)cc(NC(=O)N2CCN(c3ncccc3OCc3ccnc(N)n3)CC2)c1` [Example 189, 4-(3-{[(2-aminopyrimidin-4-yl)methyl]oxy}pyridin-2-yl)-N-(3,5-diethylphenyl)piperazine-1-carboxamide] the figure was < 50 nM. Under `CCc1cccc(NC(=O)N2CCN(c3ncc(Br)cc3OCc3ccnc(N)n3)CC2)c1` [Example 190, 4-(3-{[(2-aminopyrimidin-4-yl)methyl]oxy}-5-bromopyridin-2-yl)-N-(3-ethylphenyl)piperazine-1-carboxamide] stands < 50 nM; under `CNC(=O)N1CCN(c2ncccc2OCc2ccnc(NC(=O)CN3CCN(C)CC3)c2)CC1` [Example 191, N-methyl-4-(3-{[(2-{[(4-methylpiperazin-1-yl)acetyl]amino}pyridin-4-yl)methyl]oxy}pyridin-2-yl)piperazine-1-carboxamide], 1000 to 10000 nM; under `Nc1nccc(COc2cccnc2N2CCN(C(=O)Nc3cc(C(F)(F)F)ccc3Cl)CC2)n1` [Example 192, 4-(3-{[(2-aminopyrimidin-4-yl)methyl]oxy}pyridin-2-yl)-N-[2-chloro-5-(trifluoromethyl)phenyl]piperazine-1-carboxamide], < 50 nM.
